Measured values published in BigSolDB 2.1.

O=[N+]([O-])c1cn[nH]c1[N+](=O)[O-]
solubility (mole fraction)
Settings	283.15 K	288.15 K	293.15 K	298.15 K	303.15 K	308.15 K	313.15 K	318.15 K	323.15 K
in 2-butanone	0.429	0.45	0.476	0.498	0.525	0.554	0.578	0.602	0.645
in THF	0.51	0.525	0.598	0.631	0.684	0.735	0.792	0.837	0.886
in acetonitrile	0.0745	0.0772	0.085	0.0912	0.0968	0.105	0.11	0.12	0.133
in chloroform	0.00071	0.00094	0.00113	0.00152	0.00211	0.00277	0.0035	0.00476	0.00693
in epichlorohydrin	0.0361	0.0395	0.0422	0.0467	0.0498	0.0536	0.0582	0.0634	0.0715
in ethyl acetate	0.0671	0.0791	0.0913	0.103	0.125	0.146	0.163	0.193	0.224
in isobutanol	0.234	0.264	0.265	0.329	0.355	0.391	0.438	0.486	0.539
in isopentanol	0.228	0.258	0.29	0.315	0.351	0.376	0.408	0.46	0.508
in n-pentanol	0.266	0.315	0.365	0.412	0.465	0.513	0.552	0.631	0.679
in n-propanol	0.317	0.361	0.412	0.468	0.516	0.567	0.612	0.7	0.803
in water	0.002	0.0032	0.00414	0.00529	0.00738	0.00924	0.0111	0.0136	0.0169
